27 compounds from PubChem BioAssay (NCI) can be followed below.

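Test compounds were applied to cells in 96-well plates for 48 hours at 5 doses. TGI: concentration producing complete growth inhibition.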

The test system of one experiment is 786-0 renal. Kind of experiment: DTP human tumour cell line panel, 48 h.
As usually defined, the TGI is the concentration at which net growth stops. Low readings indicate more potent growth arrest, high ones less potent growth arrest. `COc1cc([C@@H]2OCC3C(c4ccc5c(c4)OCO5)OCC32)cc(OC)c1OC` (stereo partly drawn) gave a concentration for total growth inhibition (TGI) of over 100 µM.
On the same count and under the same terms, under `C[C@]12CC[C@H](O)CC1=CC[C@@H]1C2CC[C@]2(C)C(=O)N(N)C(=O)CC12` (stereo partly drawn) stands over 100 µM; under `Cc1ccccc1-n1c(=O)c2ncn(CCCl)c2n(-c2ccccc2C)c1=S`, over 100 µM.
Still for that read-out and setting: in the case of `[N-]=[N+]=Nc1cc(=O)oc2ccccc12` it was over 100 µM.
As for `CCOC(=O)N1CCC2(CC1)C[C@](C)(C(C)=O)C(C)O2` (stereo partly drawn), the TGI was over 100 µM.
Same read-out and setting: under `COc1cc2c(cc1OC)C(c1ccccc1CCCCl)=NCC2` stands over 100 µM.
With `Cc1cccc2c(=O)cc(-c3ccccc3)[nH]c12`, the TGI was over 100 µM.
The compound `COc1cc([C@@H]2c3cc4c(cc3[C@@H](Nc3ccc([N+](=O)[O-])cc3C(=O)c3ccccc3)[C@H]3COC(=O)[C@H]23)OCO4)cc(OC)c1OC` gave a total growth inhibition concentration (TGI) of over 100 µM.
For `CCN(CC)CCC(=O)Nc1ccc2c(c1)C(=O)c1ccc(NC(=O)CCN(CC)CC)cc1C2=O`, the total growth inhibition concentration (TGI) is 8.42 µM.
For `CC(C)c1ccc(/C=C2/C=C(c3ccc4ccccc4c3)OC2=O)cc1`, the TGI was over 100 µM.
The compound `CCCCCCCCCCCOc1ccc(C(=O)C(=O)c2ccc(OCCCCCCCCCCC)c(OCCCCCCCCCCC)c2)cc1OCCCCCCCCCCC` returned a total growth inhibition concentration (TGI) of over 100 µM.
`CC(N)Cc1ccc(C(=O)Cl)cc1` (stereo not drawn): the TGI was over 100 µM.
`CC1C=C(CCCCCCCCCCCC[C@@H](O)[C@@H]2CC[C@@H]([C@@H]3CC[C@@H](C(O)CCCCCCCCCCCCC4=C[C@H](C)OC4=O)O3)O2)C(=O)O1` (stereo partly drawn) had a TGI of over 100 µM.
In the case of `CNC(=O)OCC1=C(COC(=O)NC)C(C)N(c2ccc(OC)cc2)C1` (stereo not drawn), the TGI is over 100 µM.
Turning to `O=C1c2ccccc2C2C1N2C(=O)C(F)(F)F` (stereo not drawn), the TGI is over 100 µM.
Same read-out and setting: in the case of `CC(=O)NC1=C(NCCC(C)C)C(=O)c2ccccc2C1=O` it was over 50 µM; in that of `O=S1(=O)NC(=NCc2c[nH]c3ccccc23)N(c2ccccc2)c2ccncc21`, over 100 µM; in that of `CC(=O)NNc1nc(C)c(C(=O)NNC(=O)C(=O)Nc2c(Cl)cc([N+](=O)[O-])cc2Cl)s1`, over 100 µM.
Consider `CCOC(=O)C1=C(C)NC(=S)NC1c1ccccc1` (stereo not drawn), for which the concentration for total growth inhibition (TGI) is over 100 µM.
Same read-out and setting: under `N.N.N.N.O=[N+]([O-])[O-].[Co+3].[N-]=[N+]=[N-].[N-]=[N+]=[N-]` stands over 100 µM.
Same read-out and setting: under `CCC12C=CCN3CCC4(C(=C(C(=O)OC)[C@@H]1O)Nc1ccccc14)C32` (stereo partly drawn) stands 3.07 µM.
For the compound `CC(=O)Nc1ccc(-c2nnc(SCC(=O)Nc3ccc([N+](=O)[O-])cc3)o2)cc1`, the TGI amounted to 23.7 µM.

The test system of another experiment is CCRF-CEM leukemia. Kind of experiment: DTP human tumour cell line panel, 48 h.
`COc1cc([C@@H]2OCC3C(c4ccc5c(c4)OCO5)OCC32)cc(OC)c1OC` (stereo partly drawn) returned a concentration for total growth inhibition (TGI) of over 100 µM.
For `O=C1CCC23CC(C=CC=C12)n1c(=O)n(-c2ccccc2)c(=O)n13` (stereo not drawn), the TGI was over 100 µM.
`C[C@]12CC[C@H](O)CC1=CC[C@@H]1C2CC[C@]2(C)C(=O)N(N)C(=O)CC12` (stereo partly drawn) came in with a total growth inhibition concentration (TGI) of over 100 µM.
For `Cc1ccccc1-n1c(=O)c2ncn(CCCl)c2n(-c2ccccc2C)c1=S`, the TGI was over 100 µM.
Still for that read-out and setting: in the case of `N#CN=C(N(Cc1ccccc1)Cc1ccccc1)N(Cc1ccccc1)Cc1ccccc1` it was over 100 µM; in that of `[N-]=[N+]=Nc1cc(=O)oc2ccccc12`, over 100 µM.
The same measure, in the same setting: in the case of `CNC(=O)C(C)C1CCC2(C)C=CC(=O)C(C)=C2C1O` (stereo not drawn) it was over 100 µM.
`COc1cc2c(cc1OC)C(c1ccccc1CCCCl)=NCC2` gave a concentration for total growth inhibition (TGI) of over 100 µM.
In the case of `Cc1cccc2c(=O)cc(-c3ccccc3)[nH]c12`, the TGI is over 100 µM.
For `COc1cc([C@@H]2c3cc4c(cc3[C@@H](Nc3ccc([N+](=O)[O-])cc3C(=O)c3ccccc3)[C@H]3COC(=O)[C@H]23)OCO4)cc(OC)c1OC`, the TGI is over 100 µM.
Turning to `CCN(CC)CCC(=O)Nc1ccc2c(c1)C(=O)c1ccc(NC(=O)CCN(CC)CC)cc1C2=O`, the concentration for total growth inhibition (TGI) is 18.5 µM.
Same read-out and setting: in the case of `CC(C)c1ccc(/C=C2/C=C(c3ccc4ccccc4c3)OC2=O)cc1` it was 20 µM.
The same measure, in the same setting: in the case of `CC(C)CCCCCCCCCCCCC(=O)NCC(=O)NC1C(C)OC(Nc2ncnc3c2ncn3C)C(O)C1O` (stereo not drawn) it was over 100 µM; in that of `CCCCCCCCCCCOc1ccc(C(=O)C(=O)c2ccc(OCCCCCCCCCCC)c(OCCCCCCCCCCC)c2)cc1OCCCCCCCCCCC`, over 100 µM.
The compound `CC(N)Cc1ccc(C(=O)Cl)cc1` (stereo not drawn) gave a TGI of over 100 µM.
Regarding `COc1nc(N)c(C(=O)CCl)c(=O)n1C`, the total growth inhibition concentration (TGI) was determined as 79.8 µM.
Same read-out and setting: in the case of `CC1C=C(CCCCCCCCCCCC[C@@H](O)[C@@H]2CC[C@@H]([C@@H]3CC[C@@H](C(O)CCCCCCCCCCCCC4=C[C@H](C)OC4=O)O3)O2)C(=O)O1` (stereo partly drawn) it was over 100 µM; in that of `CNC(=O)OCC1=C(COC(=O)NC)C(C)N(c2ccc(OC)cc2)C1` (stereo not drawn), over 100 µM; in that of `O=C1c2ccccc2C2C1N2C(=O)C(F)(F)F` (stereo not drawn), 70.9 µM.
The same measure, in the same setting: under `CC(=O)NC1=C(NCCC(C)C)C(=O)c2ccccc2C1=O` stands over 50 µM; under `O=S1(=O)NC(=NCc2c[nH]c3ccccc23)N(c2ccccc2)c2ccncc21`, over 100 µM.
The compound `CC(=O)NNc1nc(C)c(C(=O)NNC(=O)C(=O)Nc2c(Cl)cc([N+](=O)[O-])cc2Cl)s1` displayed a total growth inhibition concentration (TGI) of 93.4 µM.
`CCOC(=O)C1=C(C)NC(=S)NC1c1ccccc1` (stereo not drawn) registered a total growth inhibition concentration (TGI) of over 76.9 µM.
The compound `N.N.N.N.O=[N+]([O-])[O-].[Co+3].[N-]=[N+]=[N-].[N-]=[N+]=[N-]` yielded a TGI of over 100 µM.
For `CCC12C=CCN3CCC4(C(=C(C(=O)OC)[C@@H]1O)Nc1ccccc14)C32` (stereo partly drawn), the concentration for total growth inhibition (TGI) came to 6 µM.
`CC(=O)Nc1ccc(-c2nnc(SCC(=O)Nc3ccc([N+](=O)[O-])cc3)o2)cc1` displayed a TGI of over 100 µM.

The test system of the next experiment is EKVX NSCLC. The experiment in a line: DTP human tumour cell line panel, 48 h.
`COc1cc([C@@H]2OCC3C(c4ccc5c(c4)OCO5)OCC32)cc(OC)c1OC` (stereo partly drawn) returned a total growth inhibition concentration (TGI) of over 100 µM.
In the case of `O=C1CCC23CC(C=CC=C12)n1c(=O)n(-c2ccccc2)c(=O)n13` (stereo not drawn), the TGI was over 100 µM.
`C[C@]12CC[C@H](O)CC1=CC[C@@H]1C2CC[C@]2(C)C(=O)N(N)C(=O)CC12` (stereo partly drawn): the total growth inhibition concentration (TGI) is over 100 µM.
For `Cc1ccccc1-n1c(=O)c2ncn(CCCl)c2n(-c2ccccc2C)c1=S`, the total growth inhibition concentration (TGI) was over 100 µM.
The compound `N#CN=C(N(Cc1ccccc1)Cc1ccccc1)N(Cc1ccccc1)Cc1ccccc1` yielded a concentration for total growth inhibition (TGI) of over 100 µM.
For the compound `CCOC(=O)N1CCC2(CC1)C[C@](C)(C(C)=O)C(C)O2` (stereo partly drawn), the TGI was over 100 µM.
`CNC(=O)C(C)C1CCC2(C)C=CC(=O)C(C)=C2C1O` (stereo not drawn) registered a concentration for total growth inhibition (TGI) of over 100 µM.
`COc1cc2c(cc1OC)C(c1ccccc1CCCCl)=NCC2` registered a total growth inhibition concentration (TGI) of over 100 µM.
On the same count and under the same terms, in the case of `Cc1cccc2c(=O)cc(-c3ccccc3)[nH]c12` it was over 100 µM.
With `COc1cc([C@@H]2c3cc4c(cc3[C@@H](Nc3ccc([N+](=O)[O-])cc3C(=O)c3ccccc3)[C@H]3COC(=O)[C@H]23)OCO4)cc(OC)c1OC`, the TGI was over 100 µM.
Same read-out and setting: in the case of `CCN(CC)CCC(=O)Nc1ccc2c(c1)C(=O)c1ccc(NC(=O)CCN(CC)CC)cc1C2=O` it was 15.1 µM.
`CC(C)c1ccc(/C=C2/C=C(c3ccc4ccccc4c3)OC2=O)cc1` had a TGI of over 92.5 µM.
On to `CC(C)CCCCCCCCCCCCC(=O)NCC(=O)NC1C(C)OC(Nc2ncnc3c2ncn3C)C(O)C1O` (stereo not drawn), for which the TGI is over 100 µM.
`CCCCCCCCCCCOc1ccc(C(=O)C(=O)c2ccc(OCCCCCCCCCCC)c(OCCCCCCCCCCC)c2)cc1OCCCCCCCCCCC` yielded a TGI of over 100 µM.
On to `CC(N)Cc1ccc(C(=O)Cl)cc1` (stereo not drawn), for which the TGI is over 100 µM.
